Data on 1 compound can be found in ChEMBL document CHEMBL1133961, “Chemo-enzymatic synthesis of the Galili epitope Gal(alpha)(1-->3)Galbeta(1-->4)GlcNAc on a homogeneously soluble PEG polymer by a multi-enzyme system” (Bioorg Med Chem Lett, 2001).

Series [1] in a line: (§1) Kinetic data for inhibition of Beta-1,4-GalT by free N-acetyl-glucosamine. Also noted: species or system Homo sapiens.
A short description of series [2]: (§2) Kinetic data for inhibition of Beta-1,4-GalT by polymer-supported Nacetylglucosamine. Further details: species or system Homo sapiens.
The species entered for another series is Homo sapiens. Described as §1.
The nature of series [3]: as §1. Conditions: human.
A short description of series [4]: as §2. Particulars: human.

What is called Ki is a dissociation constant, usually derived from enzyme kinetics or from competition with a known ligand. A higher Ki goes with lower affinity. For orientation: Km means the concentration of substrate that gives half-maximal velocity. As for `CC(=O)N[C@@H]1[C@@H](O)[C@H](O)[C@@H](CO)O[C@H]1O` [N-ACETYLGLUCOSAMINE], the results for the Ki in series [1] and in series [2] were 14.3 mM and 0.54 mM, respectively. The Km worked out at 34.6 mM in the series listed under Homo sapiens and 10.5 mM in series [4]. Further, the values for the Vmax in series [3] and in series [4] were 2.62 U mg-1 and 4.73 U mg-1, respectively.
